The source made the active and inactive calls.
Assays:
[1] = biological target: T1, Polyadenylate-binding protein 1 (Homo sapiens, UniProt P11940); assay: MLLE domain peptide-binding blockers, IC50 – biochemical, fluorescence polarization, FITC-PAM2 peptide, dose response (AID 602259); type: functional; settings: read-out: IC50_Mean
[2] = biological target: T2, RNA-binding protein pos-1 (Caenorhabditis elegans, UniProt G5EF15); assay: disruptors of C. elegans POS-1 RNA interaction – biochemical, fluorescence polarization, dose response (AID 1964);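 also: purified POS-1 fused to maltose binding protein made in E. coli; potency of compounds blocking POS-1 binding to fluorescent RNA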
T2 sequence (G5EF15 whole entry): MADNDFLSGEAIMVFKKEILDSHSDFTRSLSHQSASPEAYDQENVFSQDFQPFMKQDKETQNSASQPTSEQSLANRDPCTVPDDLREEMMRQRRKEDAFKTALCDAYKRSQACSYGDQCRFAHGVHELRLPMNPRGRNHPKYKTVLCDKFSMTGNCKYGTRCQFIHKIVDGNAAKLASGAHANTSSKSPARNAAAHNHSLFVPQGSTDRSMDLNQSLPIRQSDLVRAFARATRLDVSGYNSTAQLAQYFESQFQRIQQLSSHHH

[3] = biological target: T3, Zinc finger protein mex-5 (Caenorhabditis elegans, UniProt Q9XUB2); assay: potency of MEX-5 RNA-binding blockers – biochemical, C. elegans, fluorescence polarization, dose response (AID 1960)
T3 sequence (Q9XUB2 whole entry): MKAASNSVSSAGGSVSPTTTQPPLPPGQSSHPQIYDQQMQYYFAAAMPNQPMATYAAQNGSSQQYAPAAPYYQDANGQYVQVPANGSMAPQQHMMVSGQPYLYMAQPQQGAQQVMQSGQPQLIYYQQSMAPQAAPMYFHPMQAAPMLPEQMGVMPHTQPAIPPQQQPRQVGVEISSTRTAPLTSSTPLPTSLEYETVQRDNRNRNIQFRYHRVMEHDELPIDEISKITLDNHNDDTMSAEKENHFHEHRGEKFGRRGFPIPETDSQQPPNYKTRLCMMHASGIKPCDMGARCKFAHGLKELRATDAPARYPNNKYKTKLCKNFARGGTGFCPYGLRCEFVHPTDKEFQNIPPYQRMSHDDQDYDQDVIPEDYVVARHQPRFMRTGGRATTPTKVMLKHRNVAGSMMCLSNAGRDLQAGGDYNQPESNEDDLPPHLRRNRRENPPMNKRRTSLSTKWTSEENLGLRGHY

[4] = biological target: Intestinal-type alkaline phosphatase (Mus musculus, UniProt P24822); assay: PubChem AID 488785; type: functional
Sequence of Intestinal-type alkaline phosphatase (Mus musculus, UniProt P24822) (P24822 whole entry): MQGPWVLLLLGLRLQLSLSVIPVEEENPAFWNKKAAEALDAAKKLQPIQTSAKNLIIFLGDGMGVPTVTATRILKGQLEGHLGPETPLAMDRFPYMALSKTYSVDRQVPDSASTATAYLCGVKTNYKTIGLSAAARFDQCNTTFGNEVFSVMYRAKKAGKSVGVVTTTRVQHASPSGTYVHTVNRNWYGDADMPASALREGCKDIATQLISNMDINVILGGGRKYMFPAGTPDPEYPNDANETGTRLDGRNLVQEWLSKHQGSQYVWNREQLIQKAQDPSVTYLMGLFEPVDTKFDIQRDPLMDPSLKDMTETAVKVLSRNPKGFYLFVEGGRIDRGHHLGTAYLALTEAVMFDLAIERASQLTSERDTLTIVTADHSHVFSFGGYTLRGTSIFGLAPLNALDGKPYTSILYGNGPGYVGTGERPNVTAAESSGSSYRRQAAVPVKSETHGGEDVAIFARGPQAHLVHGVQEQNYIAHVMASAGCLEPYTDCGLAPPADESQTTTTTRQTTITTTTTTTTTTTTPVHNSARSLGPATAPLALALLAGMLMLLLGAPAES

[5] = biological target: Procathepsin L (Homo sapiens, UniProt P07711); assay: CTSL1 protease inhibition – biochemical, QFRET, 1536-well, counter-screen for M1/M17 aminopeptidase inhibitor project, dose response (AID 2214)
Sequence of Procathepsin L (P07711 whole entry): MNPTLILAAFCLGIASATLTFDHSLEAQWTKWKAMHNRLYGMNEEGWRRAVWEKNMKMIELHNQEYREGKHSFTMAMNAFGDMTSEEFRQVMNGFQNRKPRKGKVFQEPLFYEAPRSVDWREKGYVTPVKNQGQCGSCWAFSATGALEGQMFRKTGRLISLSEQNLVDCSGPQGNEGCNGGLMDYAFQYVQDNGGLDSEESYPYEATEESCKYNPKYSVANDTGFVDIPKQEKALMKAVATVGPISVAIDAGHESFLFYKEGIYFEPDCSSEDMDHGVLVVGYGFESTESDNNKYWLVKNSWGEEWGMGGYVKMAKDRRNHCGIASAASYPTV

[6] = biological target: T4, Aminopeptidase N (Plasmodium falciparum FcB1/Columbia, UniProt O96935); assay: malaria alanyl aminopeptidase activity blockers – biochemical, fluorogenic H-Leu-NHMec substrate, 1536-well (AID 1445); set-up: species or system Plasmodium falciparum 3D7, 3D7
T4 sequence (O96935 whole entry): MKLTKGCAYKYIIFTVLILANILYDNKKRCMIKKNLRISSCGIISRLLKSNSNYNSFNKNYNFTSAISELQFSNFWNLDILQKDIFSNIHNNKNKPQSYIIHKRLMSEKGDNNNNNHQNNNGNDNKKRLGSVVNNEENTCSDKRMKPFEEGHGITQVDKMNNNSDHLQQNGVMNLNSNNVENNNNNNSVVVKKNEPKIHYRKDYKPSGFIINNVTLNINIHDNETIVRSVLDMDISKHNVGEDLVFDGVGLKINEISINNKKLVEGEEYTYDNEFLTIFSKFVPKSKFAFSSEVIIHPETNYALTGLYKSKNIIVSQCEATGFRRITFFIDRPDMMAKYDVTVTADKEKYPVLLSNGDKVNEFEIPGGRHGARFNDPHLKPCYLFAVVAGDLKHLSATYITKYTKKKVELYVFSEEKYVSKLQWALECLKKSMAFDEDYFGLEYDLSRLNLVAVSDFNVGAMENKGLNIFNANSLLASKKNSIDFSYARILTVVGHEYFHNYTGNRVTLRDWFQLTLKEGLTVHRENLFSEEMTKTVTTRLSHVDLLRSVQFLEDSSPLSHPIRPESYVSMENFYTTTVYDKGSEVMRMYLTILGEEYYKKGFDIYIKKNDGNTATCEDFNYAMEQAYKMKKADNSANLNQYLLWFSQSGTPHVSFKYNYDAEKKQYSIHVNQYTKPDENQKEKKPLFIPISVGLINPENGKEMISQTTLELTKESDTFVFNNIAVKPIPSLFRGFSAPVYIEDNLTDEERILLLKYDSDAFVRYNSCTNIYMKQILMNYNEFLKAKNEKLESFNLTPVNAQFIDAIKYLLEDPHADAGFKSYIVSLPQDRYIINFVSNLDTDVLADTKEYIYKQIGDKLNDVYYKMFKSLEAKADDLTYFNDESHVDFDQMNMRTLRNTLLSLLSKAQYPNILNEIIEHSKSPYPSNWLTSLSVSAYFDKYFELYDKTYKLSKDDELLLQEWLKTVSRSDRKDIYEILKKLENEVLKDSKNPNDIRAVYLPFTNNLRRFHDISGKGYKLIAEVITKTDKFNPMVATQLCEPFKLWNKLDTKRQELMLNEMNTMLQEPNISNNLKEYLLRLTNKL

[7] = biological target: T1, Polyadenylate-binding protein 1; assay: MLLE binding blockers, Cy5 peptide tracer – biochemical, fluorescence polarization, Cy5-PAM2 peptide, secondary, miRNA deadenylation inhibitor project, dose response (AID 602260); type: functional; settings: read-out: IC50_Mean
[8] = biological target: T5, Alkaline phosphatase, tissue-nonspecific isozyme (Homo sapiens, UniProt P05186); assay: TNAP enzyme inhibition by screening hits, dose response, selectivity assay for mouse IAP inhibitor project, biochemical, human TNAP, uHTS hits (AID 488906); type: functional
T5 sequence (P05186 whole entry): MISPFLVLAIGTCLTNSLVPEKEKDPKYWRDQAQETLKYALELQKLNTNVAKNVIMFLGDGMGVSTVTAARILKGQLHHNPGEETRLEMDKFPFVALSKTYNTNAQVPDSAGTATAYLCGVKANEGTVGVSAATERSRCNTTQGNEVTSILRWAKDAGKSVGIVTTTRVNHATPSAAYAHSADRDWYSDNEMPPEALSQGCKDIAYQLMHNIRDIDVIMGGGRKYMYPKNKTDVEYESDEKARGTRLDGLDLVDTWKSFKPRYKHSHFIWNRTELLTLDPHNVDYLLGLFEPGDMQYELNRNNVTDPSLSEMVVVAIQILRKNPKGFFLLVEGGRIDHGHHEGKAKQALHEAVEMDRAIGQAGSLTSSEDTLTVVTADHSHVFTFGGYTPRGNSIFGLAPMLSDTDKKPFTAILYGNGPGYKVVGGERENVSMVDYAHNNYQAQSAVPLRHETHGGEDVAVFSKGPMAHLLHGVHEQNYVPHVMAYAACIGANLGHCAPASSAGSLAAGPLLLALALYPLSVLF

[9] = biological target: Intestinal-type alkaline phosphatase (Homo sapiens, UniProt P09923); assay: inhibition of human intestinal alkaline phosphatase – biochemical, dose response (AID 488876); type: functional
Sequence of Intestinal-type alkaline phosphatase (Homo sapiens, UniProt P09923) (P09923 whole entry): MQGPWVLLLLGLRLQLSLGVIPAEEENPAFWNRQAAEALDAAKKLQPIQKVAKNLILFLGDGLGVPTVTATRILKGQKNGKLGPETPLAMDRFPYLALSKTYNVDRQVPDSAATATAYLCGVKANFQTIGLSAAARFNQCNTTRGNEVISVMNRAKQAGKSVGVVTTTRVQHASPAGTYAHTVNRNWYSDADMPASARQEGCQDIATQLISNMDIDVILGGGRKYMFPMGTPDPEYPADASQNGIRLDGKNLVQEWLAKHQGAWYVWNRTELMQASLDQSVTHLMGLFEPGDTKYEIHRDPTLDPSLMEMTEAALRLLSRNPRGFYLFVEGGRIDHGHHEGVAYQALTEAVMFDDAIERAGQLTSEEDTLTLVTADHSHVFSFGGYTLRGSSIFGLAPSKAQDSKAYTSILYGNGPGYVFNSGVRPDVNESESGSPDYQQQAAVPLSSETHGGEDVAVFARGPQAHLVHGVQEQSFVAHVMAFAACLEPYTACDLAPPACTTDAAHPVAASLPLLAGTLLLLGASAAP

[10] = biological target: Aspartyl aminopeptidase (Plasmodium falciparum 3D7, UniProt Q8I2J3); assay: Counterscreen for inhibitors of M1 and M17 aminopeptidases: QFRET-based biochemical high throughput dose response assay for inhibitors of the Plasmodium falciparum M18 Aspartyl Aminopeptidase (PFM18AAP). [Related PubChem assays: 1619 (Screening assay (M17LAP inhibitors).), 1445 (Screening assay (M1AAP inhibitors).)]
Sequence of Aspartyl aminopeptidase (Q8I2J3 whole entry): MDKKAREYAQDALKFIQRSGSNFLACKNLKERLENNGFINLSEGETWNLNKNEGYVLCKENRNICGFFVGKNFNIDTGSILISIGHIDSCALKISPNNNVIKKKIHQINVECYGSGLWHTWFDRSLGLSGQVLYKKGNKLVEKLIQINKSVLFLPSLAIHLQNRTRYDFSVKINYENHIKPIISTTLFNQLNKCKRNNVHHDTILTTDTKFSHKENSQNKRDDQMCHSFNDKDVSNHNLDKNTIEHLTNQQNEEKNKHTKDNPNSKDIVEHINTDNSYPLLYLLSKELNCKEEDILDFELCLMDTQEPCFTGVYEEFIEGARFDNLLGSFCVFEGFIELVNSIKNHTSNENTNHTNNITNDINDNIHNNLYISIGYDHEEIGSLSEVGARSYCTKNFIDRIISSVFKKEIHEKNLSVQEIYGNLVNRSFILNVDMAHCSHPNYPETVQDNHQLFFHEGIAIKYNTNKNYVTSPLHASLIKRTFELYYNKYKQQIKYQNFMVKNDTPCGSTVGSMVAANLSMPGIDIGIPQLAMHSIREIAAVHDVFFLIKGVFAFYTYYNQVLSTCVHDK

[11] = biological target: T6, Tyrosine-protein phosphatase non-receptor type 7 (Homo sapiens, UniProt P35236); type: functional
T6 sequence (P35236 whole entry): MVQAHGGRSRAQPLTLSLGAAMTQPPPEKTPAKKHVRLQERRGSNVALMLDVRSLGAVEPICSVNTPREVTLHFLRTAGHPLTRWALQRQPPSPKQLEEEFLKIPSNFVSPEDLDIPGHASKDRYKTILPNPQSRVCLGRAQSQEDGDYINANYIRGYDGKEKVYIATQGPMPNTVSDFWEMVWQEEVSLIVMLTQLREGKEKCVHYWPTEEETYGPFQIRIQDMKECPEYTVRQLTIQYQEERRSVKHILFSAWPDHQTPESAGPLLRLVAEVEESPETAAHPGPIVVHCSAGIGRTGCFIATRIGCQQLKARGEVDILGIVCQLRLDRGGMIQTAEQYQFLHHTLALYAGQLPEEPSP

[12] = biological target: T7, Tyrosine-protein phosphatase non-receptor type 22 (Homo sapiens, UniProt Q9Y2R2); type: functional
T7 sequence (Q9Y2R2 whole entry): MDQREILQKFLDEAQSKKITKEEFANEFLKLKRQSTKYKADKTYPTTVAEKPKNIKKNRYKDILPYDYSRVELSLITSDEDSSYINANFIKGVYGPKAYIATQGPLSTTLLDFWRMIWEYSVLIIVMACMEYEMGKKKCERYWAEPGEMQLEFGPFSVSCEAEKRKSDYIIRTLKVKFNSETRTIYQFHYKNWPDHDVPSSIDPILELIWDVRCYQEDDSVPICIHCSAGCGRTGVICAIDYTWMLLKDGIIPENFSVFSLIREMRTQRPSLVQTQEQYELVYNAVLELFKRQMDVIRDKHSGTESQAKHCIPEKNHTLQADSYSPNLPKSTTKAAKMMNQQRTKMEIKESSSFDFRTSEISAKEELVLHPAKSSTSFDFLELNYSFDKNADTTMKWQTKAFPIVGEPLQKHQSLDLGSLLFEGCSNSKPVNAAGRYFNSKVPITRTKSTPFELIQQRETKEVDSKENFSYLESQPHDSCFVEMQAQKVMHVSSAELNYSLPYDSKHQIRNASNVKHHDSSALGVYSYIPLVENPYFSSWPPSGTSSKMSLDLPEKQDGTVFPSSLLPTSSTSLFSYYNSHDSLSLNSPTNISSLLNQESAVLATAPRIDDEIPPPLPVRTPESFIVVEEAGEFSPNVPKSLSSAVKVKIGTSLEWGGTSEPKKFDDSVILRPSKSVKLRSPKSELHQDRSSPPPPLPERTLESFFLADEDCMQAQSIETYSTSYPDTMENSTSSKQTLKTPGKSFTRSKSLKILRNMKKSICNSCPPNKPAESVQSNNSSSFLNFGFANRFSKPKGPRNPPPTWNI

[13] = biological target: T7, Tyrosine-protein phosphatase non-receptor type 22; type: functional; remark: listed apart in the source

T1 sequence (P11940 whole entry, the tested form may be a part): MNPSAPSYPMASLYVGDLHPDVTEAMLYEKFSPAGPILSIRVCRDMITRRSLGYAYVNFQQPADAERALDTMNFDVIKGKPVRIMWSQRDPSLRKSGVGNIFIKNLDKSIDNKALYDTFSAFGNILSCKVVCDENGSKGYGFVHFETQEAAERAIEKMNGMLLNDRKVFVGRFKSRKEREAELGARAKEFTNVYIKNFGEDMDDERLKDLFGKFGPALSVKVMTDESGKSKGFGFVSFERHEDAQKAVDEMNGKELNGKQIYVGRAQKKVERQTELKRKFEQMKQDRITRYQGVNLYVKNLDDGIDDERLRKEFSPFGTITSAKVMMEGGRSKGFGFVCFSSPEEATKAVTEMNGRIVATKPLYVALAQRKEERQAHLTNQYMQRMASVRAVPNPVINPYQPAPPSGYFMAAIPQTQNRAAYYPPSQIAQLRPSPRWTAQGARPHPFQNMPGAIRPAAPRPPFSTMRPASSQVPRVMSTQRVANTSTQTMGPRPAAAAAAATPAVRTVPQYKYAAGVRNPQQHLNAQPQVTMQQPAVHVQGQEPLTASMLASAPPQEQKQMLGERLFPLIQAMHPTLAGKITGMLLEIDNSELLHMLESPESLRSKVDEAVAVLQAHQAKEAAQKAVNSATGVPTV

Row | SMILES | IC50 [1] | EC50 [2] | EC50 [3] | IC50 [4] | IC50 [5] | IC50 [6] | IC50 [7] | IC50 [8] | IC50 [9] | IC50 [10] | IC50 [11] | IC50 [12] | IC50 [13]
1 | CCN1C(=O)/C(=C2\SC(=S)N(NC(=O)c3ccccc3O)C2=O)c2ccccc21 | > 66 µM (inactive) | 7.47 µM (active) | 5.31 µM (active) | 53.5 µM (active) | > 59.6 µM (not active) | 9.43 µM (active) | > 66 µM (inactive) | > 100 µM (inactive) | > 100 µM (inactive) | 25 µM (not active) | – | – | –
2 | CSCC[C@H](NC(=O)Nc1cccc(C(F)(F)F)c1)C(=O)O | – | – | – | – | – | – | – | – | – | – | > 79.4 µM (inactive) | > 79.4 µM (inactive) | > 79.4 µM (inactive)
